# Assay results reported in ChEMBL document CHEMBL1154115, “NO-glibenclamide derivatives: prototypes of a new class of nitric oxide-releasing anti-diabetic drugs” (Bioorg Med Chem, 2009).
# Activity calls are given as the source filed them. The calls are words filed in the database; no cut-off is given here.
# Assays:
# Rattus norvegicus = assay: Hypoglycemic activity in streptozotocin-induced diabetic Wistar rat assessed as reduction in blood glucose AUC level at 10 mg/kg, ip measured for 2 hrs (Rvb= 45318 mg/dl/2 h); assay type: functional, organism-based; parameters: dose 10 mg/kg
# Platelet = assay: Inhibition of ADP-induced platelet aggregation in human platelet-rich plasma at 100 uM treated 2 mins before ADP challenge by turbidimetric method; assay type: functional; parameters: scale not given: the % may be the effect or the level left
# [1] = Induction of 20 mM glucose-stimulated insulin secretion in human pancreatic islet cells assessed as insulin stimulation index at 10 uM by immunoradiometric assay; assay type: functional
# Liver = assay: Induction of NO release in Wistar rat liver homogenate at 200 uM by amperometric detection method; assay type: functional, tissue-based
# [2] = Induction of 20 mM glucose-stimulated insulin secretion in human pancreatic islet cells assessed as insulin stimulation index at 100 uM by immunoradiometric assay; assay type: functional
# Aorta = assay: Vasorelaxant activity in endothelium-denuded Wistar rat thoracic aortic ring assessed as inhibition of KCl-induced contraction; assay type: functional, tissue-based
Compound,AUC (Rattus norvegicus) [mg·min/dL],Activity (Platelet) [%],Activity [1],Activity (Liver),Activity [2],Emax (Aorta) [%],IC50 (Aorta) [nM]
COc1ccc(Cl)cc1C(=O)NCCc1ccc(S(=O)(=O)NC(=O)N[C@H]2CC[C@H](O)CC2)cc1 [4-TRANS-HYDROXY-GLYBENCLAMIDE],34500,76,6,inactive,8.2,,
COc1ccc(Cl)cc1C(=O)NCCc1ccc(S(=O)(=O)NC(=O)NC2CCCCC2)cc1 [GLYBURIDE],33100,67,4.3,inactive,5.2,,
O=[N+]([O-])OCC(CO[N+](=O)[O-])O[N+](=O)[O-] [NITROGLYCERIN],,28,,600 nM,,98,58.9
